# Laboratory results taken from patent publication US20110319338A1, “PEPTIDES THAT BIND EUKARYOTIC TRANSLATION INITIATION FACTOR 4E” (The Board of Regents of the University of Texas System, priority 2008, published 2011).
# Square brackets hold non-standard residues; d marks the D form. Ends that are not written are not given here.
# System: ES-2-DualLuc cells
# Experiment: Cell-based translation assay with bicistronic R-Luc/F-Luc reporter
# Details: peptide 6 hours, 0.3 to 10 micromoles per liter, relative to cells without peptide
# Experimental: FIGS. 2A-2F. Inhibition of cap-dependent translation and cell growth by TAT-4EBP fusion peptides. (FIG. 2A) Representation of the pIRES-DualLuc bicistronic construct containing Renilla Luciferase (R-Luc) and firefly luciferase (F-Luc) genes. In (FIG. 2B), R-Luc and F-Luc activities were assayed in ES-2-DualLuc cells following treatment for 24 hours with rapamycin and for 3 hours with cycloheximide with the indicated concentrations of these drugs, and expressed relative to the respective luciferase activities in cells incubated without drug. Cell viability was not affected by rapamycin and cycloheximide under these conditions. In (FIG. 2C), R-Luc and F-Luc activities were assayed in ES-2-DualLuc cells following treatment for 6 hours with the indicated concentrations of peptides, and expressed relative to the respective luciferase activities in cells incubated without peptide. Shown are results of triplicate assays performed independently two times, and the statistical significance of differences in relative R-Luc and F-Luc activities in cells treated with peptide at a concentration of 10 micromoles per liter. (FIG. 2D) Viability of OVCAR-3 cells at 3 days after addition of the indicated concentrations of peptides, expressed relative to viability of cells incubated without peptide. Shown are results of triplicate assays performed in two independent experiments, and statistical significances of differences in viability of cells treated with TAT-4EBP1-WT vs. TAT-4EBP1-MT, and of cells treated with TAT-4EBP2-WT vs. TAT-4EBP2-MT at a concentration of 10 micromoles per liter. (FIG. 2E) OVCAR-3 cells at 3 days after peptide addition (10 micromoles per liter) viewed under phase-contrast microscopy. (FIG. 2F) Flow cytometric analysis of staining of terminal deoxynucleotidyl transferase-mediated dUTP nick end labeling (TUNEL) in OVCAR-3 cells at 3 days after peptide addition (10 micromoles per liter). Cells incubated for 3 days in the absence of peptide in medium with and without serum are included as controls.
# FIGS. 3A-3H. Uptake, binding and inhibitory effects of [DLys6]GnRH-4EBP fusion peptides. (FIG. 3A) Sequences of [DLys6]GnRH, and wild-type and mutant 4EBP1 peptides fused to the agonist. (FIG. 3B) Western blot of GnRH-RI levels in OVCAR-3, ES-2, MDA-MB-231, BJ, HUVEC and SKOV3 cells. (FIG. 3C) Detection of biotinylated peptides in OVCAR-3 and SKOV3 by Texas Red-conjugated streptavidin at 16 hours after peptide addition (3 micromoles per liter). In (FIGS. 3D and 3E), biotinylated peptides were incubated with OVCAR-3 cell lysate as described in FIG. 1. In (FIG. 3D), peptide was pulled down using streptavidin-agarose. Precipitates (P) and supernatants (S) were analyzed by Western blot using eIF4E antibody. In (FIG. 3E), immunoprecipitation was performed using eIF4E antibody, and Western blot performed using eIF4G antibody. (FIG. 3F) R-Luc and F-Luc activities were assayed in ES-2-DualLuc cells at 6 hours after addition of the indicated concentrations of peptides, and are expressed relative to the respective luciferase activities in cells incubated without peptide. Shown are results of triplicate assays performed independently two times, and the statistical significance of differences in relative R-Luc and F-Luc activities in cells treated with peptide at a concentration of 10 micromoles per liter (FIG. 3G) Cells of GnRH-RI-positive and -negative lines were treated with the indicated concentrations of peptides. Viability at 3 days after peptide addition is expressed relative to viability of cells incubated with no peptide. Shown are results of triplicate assays performed in two independent experiments, and statistical significances of differences in viability of cells treated with wild-type vs. mutant [DLys6]GnRH-4EBP1 peptides at a concentration of 10 micromoles per liter. (FIG. 3H) ES-2 and parental SKOV3 cells at 3 days after peptide addition (30 micromoles per liter) viewed under phase-contrast microscopy. […]
substance,measurement,value
"[DLys6]GnRH: GnRH agonist with a D-amino acid substitution at position 6; GnRH-RI-targeting moiety (QHWSY[dK]LRPG; not fully specified (residue 1, C-terminus); ends and bridges not checked)",cap-dependent translation (R-Luc read-out),not inhibited
